# Patent publication US20200172549A1, “NOVEL CHLORIN E6-CURCUMIN DERIVATIVES, PREPARATION METHOD THEREOF, AND PHARMACEUTICAL COMPOSITION CONTAINING THE SAME FOR TREATMENT OF CANCER” (DONG SUNG PHARM. CO., LTD., priority 2017, published 2020)
# Assays:
# [1] = tested on: AsPC-1 pancreatic cancer cells; assay: Phototoxicity (PDT), MTT assay, AsPC-1; type: cell-based; details: for Cell viability, Phototoxicity against AsPC-1: 3 h, 50 mW 0.09 J/cm^2 laser 100 sec, 72 h incubation
# Procedure: (§1) Phototoxicity: The culture of AsPC-1 pancreatic cancer cells were grown in RPMI-1640 medium (life technologies corporation, USA) supplemented with 10% heat-inactivated fetal bovine serum (life technologies corporation, USA) and 1% penicillin (life technologies corporation, USA), whereas MIA-paca2 and PANC-1 cells were grown in DMEM. The MTT assay was used to assess the cell viability of AsPC-1, MIA-paca2, PANC-1 cells. The cells attached to a 96-well plate (5,000 cells/well) were treated with 3.125 μM, 6.25 μM, 12.5 μM, 25 μM, 50 μM of photosensitizers, 7, 10, 13, 16, and 3 for 3 h. The photosensitized cells were then irradiated with a 50 mW, 0.09 J/cm^2 laser for 100 sec. The cells were then incubated for 72 h at 37° C. in a 5% CO2 incubator and exposed to MTT [3-(4,5-dimethylthiazol-2-yl)-2,5-diphenyl-tetrazolium bromide] (250 μg/ml) for 3 h. The solution was changed to 200 μl of dimethylsulfoxide (DMSO, Sigma). After 30 min incubation and shaking in microplate mixer, the optical density (OD) was measured using a microplate reader (Thermo Fisher scientific, USA) at 570 nm wavelength. The cell viability was calculated using the following formula: Cell viability (%)=Mean optical density of treated wells/Mean optical density of control wells×100.
# PANC-1 = assay: Phototoxicity (PDT), MTT assay, PANC-1; type: cell-based; details: for Cell viability, Phototoxicity against PANC-1: 3 h, 50 mW 0.09 J/cm^2 laser 100 sec, 72 h incubation
# Procedure: as §1
# [2] = Dark cytotoxicity, MTT assay, AsPC-1; type: cell-based; details: human, AsPC-1 pancreatic cancer cells, 3 h, no light, 72 h incubation, read-out: Cell viability, Dark Cytotoxicity against AsPC-1; for viability at 3.12 μM: 3.12 μM photosensitizer; for viability at 6.25 μM: 6.25 μM photosensitizer; for viability at 12.5 μM: 12.5 μM photosensitizer; for viability at 25 μM: 25 μM photosensitizer; for viability at 50 μM: 50 μM photosensitizer
# Procedure: as §1, with “Dark cytotoxicity:” for “Phototoxicity:”, “1” for “1%”, “h.” for “h. The photosensitized cells were then irradiated with a 50 mW, 0.09 J/cm^2 laser for 100 sec.”
# [3] = Dark cytotoxicity, MTT assay, MIA-PaCa-2; type: cell-based; details: human, MIA-PaCa-2 cells, 3 h, no light, 72 h incubation, read-out: Cell viability, Dark cytotoxicity against MIA-PaCa-2; for viability at 3.12 μM: 3.12 μM photosensitizer; for viability at 6.25 μM: 6.25 μM photosensitizer; for viability at 12.5 μM: 12.5 μM photosensitizer; for viability at 25 μM: 25 μM photosensitizer; for viability at 50 μM: 50 μM photosensitizer
# Procedure: as §1, with “Dark cytotoxicity:” for “Phototoxicity:”, “1” for “1%”, “h.” for “h. The photosensitized cells were then irradiated with a 50 mW, 0.09 J/cm^2 laser for 100 sec.”
# [4] = Photophysical properties (absorption) in DMSO; type: physicochemical
# Procedure: The photophysical properties of Ce6-curcumin conjugates and dimethyl ester ce6 were analyzed in dimethyl sulfoxide (DMSO). All the photosensitizers 7, 10, 13, and 16 (Formula IV) effectively absorbed the red light compared to dimethyl ester ce6. The major soret peak at λmax=405-408 nm and Q-bands at 667 nm for the photosensitizers 7, 10, 13, and 16 (Formula IV) and Q band peak at 656 for dimethyl ester ce6.
# MIA-PaCa-2 = assay: Phototoxicity (PDT), MTT assay, MIA-PaCa-2; type: cell-based; details: for Cell viability, Phototoxicity against MIA-PaCa-2: 3 h, 50 mW 0.09 J/cm^2 laser 100 sec, 72 h incubation
# Procedure: as §1
Compound,"Cell viability, Phototoxicity against AsPC-1 ([1]; 3.12 μM photosensitizer) [%]","Cell viability, Phototoxicity against AsPC-1 ([1]; 6.25 μM photosensitizer) [%]","Cell viability, Phototoxicity against AsPC-1 ([1]; 12.5 μM photosensitizer) [%]","Cell viability, Phototoxicity against AsPC-1 ([1]; 25 μM photosensitizer) [%]","Cell viability, Phototoxicity against AsPC-1 ([1]; 50 μM photosensitizer) [%]","Cell viability, Phototoxicity against PANC-1 (PANC-1; 3.12 μM photosensitizer) [%]","Cell viability, Phototoxicity against PANC-1 (PANC-1; 6.25 μM photosensitizer) [%]","Cell viability, Phototoxicity against PANC-1 (PANC-1; 12.5 μM photosensitizer) [%]","Cell viability, Phototoxicity against PANC-1 (PANC-1; 25 μM photosensitizer) [%]","Cell viability, Phototoxicity against PANC-1 (PANC-1; 50 μM photosensitizer) [%]",viability at 3.12 μM [2] [%],viability at 6.25 μM [2] [%],viability at 12.5 μM [2] [%],viability at 25 μM [2] [%],viability at 50 μM [2] [%],viability at 3.12 μM [3] [%],viability at 6.25 μM [3] [%],viability at 12.5 μM [3] [%],viability at 25 μM [3] [%],viability at 50 μM [3] [%],other results
"C=Cc1c(C)c2cc3nc(c(CC(=O)O)c4[nH]c(cc5nc(cc1[nH]2)C(C)=C5CC)c(C)c4C(=O)O)[C@@H](CCC(=O)O)[C@@H]3C [Compound 3, Chlorin e6]",91.05,76.65,66.31,37.32,17.52,104.37,82.85,30.03,8.57,7.61,98.8,101,100,99.6,100,98.8,101,100,99.6,100,"inhibition at 25 µM ([1]; Homo sapiens, ASPC1, 25 μM concentration, with light): 63%; inhibition at 25 µM (PANC-1; Homo sapiens, PANC-1, 25 μM concentration, with light): 91%"
"C=Cc1c(C)c2cc3nc(c(CC(=O)OC)c4[nH]c(cc5nc(cc1[nH]2)C(C)=C5CC)c(C)c4C(=O)NCCCCCCNC(=O)CCCC(=O)Oc1ccc(/C=C/C(=O)CC(=O)/C=C/c2ccc(O)c(OC)c2)cc1OC)C(CCC(=O)OC)C3C (stereo not drawn) [Compound 10, Chlorine e6-curcumin Conjugate (10)]",85.90,75.12,34.05,26.11,23.17,99.74,96.76,81.89,81.07,73.00,96.5,98.2,98.5,95,78.8,89.7,82,75.1,66.4,48.7,"Q-band peak [4]: 667 nm; Cell viability, Phototoxicity against MIA-PaCa-2 (MIA-PaCa-2; 3.12 μM photosensitizer): 94.15%; Cell viability, Phototoxicity against MIA-PaCa-2 (MIA-PaCa-2; 6.25 μM photosensitizer): 90.03%; Cell viability, Phototoxicity against MIA-PaCa-2 (MIA-PaCa-2; 12.5 μM photosensitizer): 85.20%; Cell viability, Phototoxicity against MIA-PaCa-2 (MIA-PaCa-2; 25 μM photosensitizer): 64.88%; Cell viability, Phototoxicity against MIA-PaCa-2 (MIA-PaCa-2; 50 μM photosensitizer): 48.21%"
"C=Cc1c(C)c2cc3nc(c(CC(=O)OC)c4[nH]c(cc5nc(cc1[nH]2)C(C)=C5CC)c(C)c4C(=O)NCCOCCOCCNC(=O)CCCC(=O)Oc1ccc(/C=C/C(=O)CC(=O)/C=C/c2ccc(O)c(OC)c2)cc1OC)C(CCC(=O)OC)C3C (stereo not drawn) [Compound 13, Chlorine e6-curcumin Conjugate (13)]",7.34,6.61,6.48,6.58,6.58,8.51,7.71,7.53,8.04,7.28,105,108,106,98.5,78.7,114,115,114,96.3,66.8,"inhibition at 3 µM ([1]; Homo sapiens, ASPC1, 3 μM concentration, with light): > 90%; Q-band peak [4]: 667 nm; Cell viability, Phototoxicity against MIA-PaCa-2 (MIA-PaCa-2; 3.12 μM photosensitizer): 4.68%; Cell viability, Phototoxicity against MIA-PaCa-2 (MIA-PaCa-2; 6.25 μM photosensitizer): 5.07%; Cell viability, Phototoxicity against MIA-PaCa-2 (MIA-PaCa-2; 12.5 μM photosensitizer): 4.93%; Cell viability, Phototoxicity against MIA-PaCa-2 (MIA-PaCa-2; 25 μM photosensitizer): 5.39%; Cell viability, Phototoxicity against MIA-PaCa-2 (MIA-PaCa-2; 50 μM photosensitizer): 5.90%; inhibition at 3 µM (MIA-PaCa-2; Homo sapiens, MIA PaCa-2, 3 μM concentration, with light): > 90%; inhibition at 3 µM (PANC-1; Homo sapiens, PANC-1, 3 μM concentration, with light): > 90%"
Dimethylester of Chlorine e6 [dimethyl ester ce6],,,,,,,,,,,,,,,,,,,,,Q-band peak [4]: 656 nm
